Test system: Kunming mice (aged about 52 weeks)
Test: Mouse survival test
Assay type: in vivo
Procedure: 1.1 Experimental material: β-nicotinamide mononucleotide (NMN)
1.2 Experimental animal: Kunming mice (aged about 52 weeks)
1.3 Administration method:
Blank group: fed on full diet;
Treatment group: fed on full diet supplemented with NMN (containing adjuvants) fully dissolved in water, where a single dose of NMN is 20 mg/Kg body weight/day;
Control group: fed on full diet supplemented with adjuvants equivalent to those in the Treatment group;
Mouse survival test: […] aged 52 weeks were assigned to two groups (that is, a blank control group and a treatment group) at random, each group having 40 animals.
Experimental method: see Function Evaluation procedures and Specification of test methods for health food—(2003 Edition, the Ministry of Health).

Which results are given for NC(=O)c1ccc[n+]([C@@H]2O[C@H](COP(=O)([O-])O)[C@@H](O)[C@H]2O)c1 [NMN, β-nicotinamide mononucleotide]?
extension of the lifespan of mice (NMN 20 mg/Kg body weight/day, versus blank and control groups (Table 1)): about 29%; Morbility over 100 weeks (%) (aged 52 weeks at start, NMN 20 mg/Kg body weight/day in full diet, 100 weeks): 38%; Morbility over 120 weeks (%) (aged 52 weeks at start, NMN 20 mg/Kg body weight/day in full diet, 120 weeks): 52%; Morbility over 140 weeks (%) (aged 52 weeks at start, NMN 20 mg/Kg body weight/day in full diet, 140 weeks): 61%; Morbility over 160 weeks (%) (aged 52 weeks at start, NMN 20 mg/Kg body weight/day in full diet, 160 weeks): 74%; Morbility over 180 weeks (%) (aged 52 weeks at start, NMN 20 mg/Kg body weight/day in full diet, 180 weeks): 100%; effect on the lifespan of mice (in words) (composition containing NMN): obviously extend the lifespan of mice

— patent US20170266213A1, “USE OF BETA-NICOTINAMIDE MONONUCLEOTIDE IN PREPARATION OF ANTI-AGING DRUGS OR HEALTH-CARE PRODUCTS” (BONTAC BIO-ENGINEERING (SHENZHEN) CO., LTD, priority 2015, published 2017)
